Active and inactive are the calls of the source. No cut-off for these calls is given here.

Data set [1] deals with BXPC-3. Put plainly: Growth inhibition of human BxPC3 cells after 72 hrs by XTT assay. The following applies: BXPC-3, 72 h. The format is functional, cell-based. (In general: Tetrazolium assays rely on reduction of a dye to a coloured formazan, in cell work by metabolically active cells.)
Data set [2] concerns PANC-1. Description: Growth inhibition of human PANC1 cells after 72 hrs by XTT assay. The class given is functional, cell-based. The following applies: PANC-1, 72 h.
Data set [3] has as its system PANC-1. Description: Induction of apoptosis in human PANC1 cells assessed as accumulation at sub-G0/G1 phase at 20 uM after 24 hrs by propidium iodide staining based flow cytometry (reference value: 0.6 to 0.7%). The format is functional.
Data set [4] has as its system PANC-1. Description: Induction of apoptosis in human PANC1 cells assessed as accumulation at sub-G0/G1 phase at 20 uM after 48 hrs by propidium iodide staining based flow cytometry (reference value: 0.2 to 2.9%). The format is functional. In general terms: In flow cytometry, cells or beads pass a laser one at a time.
The test system of data set [5] is PANC-1. Description: Induction of apoptosis in human PANC1 cells assessed as accumulation at sub-G0/G1 phase at 20 uM after 72 hrs by propidium iodide staining based flow cytometry (reference value: 1.6 to 3.2%). The format is functional.
Data set [6] has as its system PANC-1. Put plainly: Induction of apoptosis in human PANC1 cells assessed as accumulation at sub-G0/G1 phase at 10 uM after 24 hrs by propidium iodide staining based flow cytometry (reference value: 0.6 to 0.7%). The format is functional.
Data set [7] relates to PANC-1. Description: Induction of apoptosis in human PANC1 cells assessed as accumulation at sub-G0/G1 phase at 10 uM after 48 hrs by propidium iodide staining based flow cytometry (reference value: 0.2 to 2.9%). The class given is functional.
Data set [8] relates to PANC-1. Description: Induction of apoptosis in human PANC1 cells assessed as accumulation at sub-G0/G1 phase at 10 uM after 72 hrs by propidium iodide staining based flow cytometry (reference value: 1.6 to 3.2%). The class given is functional.
The nature of data set [9]: Induction of apoptosis in HPNE cells at 5 to 40 uM after 24 to 72 hrs by Annexin V/7-AAD staining based flow cytometry. The class given is cell-based. The following applies: human.
The next data set has as its system Fibroblast. Put plainly: Induction of apoptosis in human primary fibroblasts at 5 to 40 uM after 24 to 72 hrs by Annexin V/7-AAD staining based flow cytometry. The format is cell-based.
The next data set has as its system PK9. Description: Induction of apoptosis in human PK9 cells at 5 to 40 uM after 24 to 72 hrs by Annexin V/7-AAD staining based flow cytometry. The format is functional, cell-based.
Data set [10] deals with MIA PaCa-2. Description: Induction of apoptosis in human MIAPaCa2 cells assessed as live cells at 20 uM after 24 hrs by Annexin V-FITC/propidium iodide staining based flow cytometry (reference value: 86.79%). The format is functional.
Data set [11] relates to MIA PaCa-2. Put plainly: Induction of apoptosis in human MIAPaCa2 cells assessed as early apoptotic cells at 20 uM after 24 hrs by Annexin V-FITC/propidium iodide staining based flow cytometry (reference value: 5.16%). The format is functional.
In data set [12] the test system is MIA PaCa-2. Description: Induction of apoptosis in human MIAPaCa2 cells assessed as late apoptotic cells at 20 uM after 24 hrs by Annexin V-FITC/propidium iodide staining based flow cytometry (reference value: 7.4%). The format is functional.
Data set [13] concerns MIA PaCa-2. Put plainly: Induction of apoptosis in human MIAPaCa2 cells assessed as necrotic cells at 20 uM after 24 hrs by Annexin V-FITC/propidium iodide staining based flow cytometry (reference value: 0.63%). The class given is functional.
Data set [14] concerns MIA PaCa-2. Description: Induction of apoptosis in human MIAPaCa2 cells assessed as live cells at 20 uM after 48 hrs by Annexin V-FITC/propidium iodide staining based flow cytometry (reference value: 86.79%). The format is functional.
Data set [15] deals with MIA PaCa-2. Put plainly: Induction of apoptosis in human MIAPaCa2 cells assessed as early apoptotic cells at 20 uM after 48 hrs by Annexin V-FITC/propidium iodide staining based flow cytometry (reference value: 5.16%). The class given is functional.
Data set [16] relates to MIA PaCa-2. Description: Induction of apoptosis in human MIAPaCa2 cells assessed as late apoptotic cells at 20 uM after 48 hrs by Annexin V-FITC/propidium iodide staining based flow cytometry (reference value: 7.4%). The format is functional.
For data set [17], the system named is MIA PaCa-2. Put plainly: Induction of apoptosis in human MIAPaCa2 cells assessed as necrotic cells at 20 uM after 48 hrs by Annexin V-FITC/propidium iodide staining based flow cytometry (reference value: 0.63%). The class given is functional.
In data set [18] the test system is MIA PaCa-2. Description: Induction of apoptosis in human MIAPaCa2 cells assessed as increase in cleaved PARP protein expression at 20 uM after 24 to 48 hrs by Western blot analysis. The format is functional, cell-based.
For data set [19], the system named is BXPC-3. Description: Induction of apoptosis in human BxPC3 cells assessed as increase in cleaved PARP protein expression at 20 uM after 24 to 48 hrs by Western blot analysis. The class given is functional, cell-based. In general terms: Immunoblotting shows a protein as a band on a membrane.
Data set [20] has as its system MIA PaCa-2. Put plainly: Induction of autophagy in human MIAPaCa2 cells assessed as increase in LC3-2 protein expression at 20 uM after 24 to 48 hrs by Western blot analysis. The format is functional, cell-based.
The subject of data set [21] is BXPC-3. Put plainly: Induction of autophagy in human BxPC3 cells assessed as increase in LC3-2 protein expression at 20 uM after 24 to 48 hrs by Western blot analysis. The format is functional, cell-based.

The IC50 is the concentration needed to halve the response being measured. High values mean lower potency, low ones higher potency. On to `CCCCCCCC/C=C\CCCCCCCCOC[C@@H]1CCCN1C(=O)[C@@H]1CCCN1.Cl`, for which the concentration for half-maximal inhibition (IC50) is 4.3 µM in the data set with BXPC-3 [1] and 5 µM in the data set on PANC-1 [2]. Moreover, the Activity with PANC-1 [3] turned out to be 4.4%; in the data set on PANC-1 [4], 21.3%; with PANC-1 [5], 74.9%; in the data set with PANC-1 [6], 2.6%; in the data set on PANC-1 [7], 12.3%; with PANC-1 [8], 56.3%. The Activity entry was “Toxic” in data set [9]; “Toxic” in the data set on Fibroblast; 83.47% with MIA PaCa-2 [10]; 6.78% in the data set with MIA PaCa-2 [11]; 8.64% in the data set with MIA PaCa-2 [12]; 1.1% in the data set with MIA PaCa-2 [13]. Further, the Activity was 81.02% in the data set on MIA PaCa-2 [14], 10.86% in the data set on MIA PaCa-2 [15], 7.94% in the data set with MIA PaCa-2 [16] and 0.16% in the data set on MIA PaCa-2 [17]. Further, in the data set with PK9, the outcome was Active. Moreover, the outcome in the data set on MIA PaCa-2 [18], in the data set with BXPC-3 [19], in the data set on MIA PaCa-2 [20] and in the data set on BXPC-3 [21] was inactive.
